# Test results taken from patent publication US8802104B2, “Parathyroid hormone receptor activation and stem and progenitor cell expansion” (The General Hospital Corporation, priority 2002, dated 2014).
# T1: renal PTH receptors (Homo sapiens, UniProt Q03431)
# T1 sequence (Q03431 27-593): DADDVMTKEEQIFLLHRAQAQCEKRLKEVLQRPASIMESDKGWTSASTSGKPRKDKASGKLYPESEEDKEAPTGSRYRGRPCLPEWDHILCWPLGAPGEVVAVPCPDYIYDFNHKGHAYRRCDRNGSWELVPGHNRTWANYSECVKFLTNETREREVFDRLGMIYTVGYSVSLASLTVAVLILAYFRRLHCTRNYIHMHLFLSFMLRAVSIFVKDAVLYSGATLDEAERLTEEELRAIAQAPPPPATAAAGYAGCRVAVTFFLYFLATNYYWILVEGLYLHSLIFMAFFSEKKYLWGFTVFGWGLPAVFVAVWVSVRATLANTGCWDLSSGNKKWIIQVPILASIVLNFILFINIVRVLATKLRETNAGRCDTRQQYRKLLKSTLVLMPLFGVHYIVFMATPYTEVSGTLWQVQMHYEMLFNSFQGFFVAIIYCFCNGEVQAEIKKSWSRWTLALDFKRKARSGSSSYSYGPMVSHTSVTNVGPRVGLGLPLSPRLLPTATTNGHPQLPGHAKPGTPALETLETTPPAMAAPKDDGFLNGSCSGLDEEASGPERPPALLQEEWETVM
# B1: granulocyte colony-stimulating factor (protein, UniProt P09919 31-207, looked up)
# Granulocyte …: TPLGPASSLPQSFLLKCLEQVRKIQGDGAALQEKLVSECATYKLCHPEELVLLGHSLGIPWAPLSSCPSQALQLAGCLSQLHSGLFLYQGLLQALEGISPELGPTLDTLQLDVADFATTIWQQMEELGMAPALQPTQGAMPAFASAFQRRAGGVLVASHLQSFLEVSYRVLRHLAQP
# notes: growth factor administered to augment recovery from chemotherapy-induced neutropenia
# What was measured:
# C-1498/GFP cells [1] = test: Annexin staining of leukemia cells cultured with OPN; type: cell-based, mouse; settings: FIG. 13a
# Protocol: (§1) To investigate the role of OPN as a candidate molecule, it was explored whether recombinant OPN is sufficient to reproduce the growth inhibition of leukemia cells in vitro. To this end, C-1498/GFP cells were cultured in wells with either (a) no OPN, (b) with 5 and 10 ug/ml of OPN. […] It was therefore concluded that recombinant osteopontin is sufficient to limit leukemic cell expansion. […] Given that PTH increases osteoblast production of OPN, it is likely that OPN participates in the preferential support of normal over leukemic cells in vivo with PTH stimulation of the stem cell niche.
# C-1498/GFP cells [2] = test: Recombinant OPN on C-1498/GFP leukemia cell growth in vitro; type: cell-based, mouse
# Protocol: as §1
# [3] = system: PTH-stimulated adenylate cyclase; settings: cited from earlier work
# renal PTH receptors = target: T1, renal PTH receptors; settings: cited from earlier work
# [4] = system: HSC pool in the bone marrow; test: HSC pool in bone marrow following chemotherapy (competitive transplant); type: in vivo, C57Bl/6 mice; settings: G-CSF alone
# Protocol: (§2) Wild-type C57Bl/6 mice were treated with 5 mg of cyclophosphamide (Day 1). The day following injection of cyclophosphamide, mice received no treatment or were treated for 8 days with G-CSF (5 μg/day), 11 days with PTH (80 μg/kg/day) or a combination of G-CSF plus PTH. Mice that received a combination of both G-CSF and PTH received G-CSF treatment for 8 days and PTH treatment for 11 days. Following this treatment protocol, mice were injected with cyclophosphamide on Day 15 and treated with G-CSF, PTH or G-CSF and PTH as described above. The treatment protocol was then repeated for two subsequent cycles, as outlined in FIG. 7.
# (§3) At the end of the four-cycle treatment with cyclophosphamide and G-CSF/PTH, the bone marrow was removed from the treated mice and competitive transplants into B6.SJL mice were performed to measure the maintenance of the HSC pool in the bone marrow. This involved mixing 5×10^5 BM cells from the treated C57Bl/6 mice (CD45.2) with 2.5×10^5 BM cells from the B6.SJL mice (CD45.1). These cells were then injected into lethally irradiated B6.SJL mice. Eighteen weeks following injection of the cells, peripheral blood was collected from the mice and the relative contribution of the HSCs from the treated animals was measured by flow cytometry for the CD45.2^+ cells. To assess the ability of the HSCs to be mobilized into the peripheral circulation, one week following treatment mice were mobilized with G-CSF (5 μg/day) for 5 days. Peripheral blood (300 μl) was collected from these mice and mixed with 2.5×10^5 BM cells from a B6.SJL mouse. These cells were injected into a lethally irradiated B6.SJL host. Eighteen weeks following injection of the cells, peripheral blood was collected from the mice and the relative contribution of the HSCs from the treated animals was measured by flow cytometry for the CD45.2^+ cells.
# [5] = system: HSCs in the peripheral circulation; test: G-CSF mobilization of HSCs into peripheral circulation after chemotherapy; type: in vivo, C57Bl/6 mice; settings: supportive growth factor therapy alone during chemotherapy
# Protocol: as §2, §3
# peripheral blood cells = test: Complete blood count during cyclophosphamide chemotherapy cycles; type: in vivo, C57Bl/6 mice; settings: cyclophosphamide 5 mg per cycle, G-CSF 5 μg/day 8 days
# Protocol: as §2
# During the course of the four treatment cycles, peripheral blood complete blood count (CBC) analysis was performed every 2 to 3 days. This analysis involved the collection of 100 μl of peripheral blood from the tail vein of the mice, which was subsequently analyzed on a HEMAVET 850FS (Drew Scientific). To avoid any deleterious effects from repeated tail bleeds, each individual mouse was only bled once per week.
molecule,measurement,setting,value
Osteopontin [OPN],Annexin staining (mode of effect),C-1498/GFP cells [1],growth inhibition rather than accelerated apoptosis
same,inhibition of leukemia cell growth,"C-1498/GFP cells [2]; 5 and 10 ug/ml OPN, FIG. 13b",sufficient to reproduce the inhibition of leukemia cell growth
same,relative ability to limit primitive cell expansion,C-1498/GFP cells [2]; leukemic vs normal cells,greater in leukemic compared to normal cells
"PTH(1-25) (SVSEIQLMHNLGKHLNSMERVEWLR; Parathyroid hormone; UniProt P01270 32-56, looked up, fragment) [carboxyl-terminally truncated PTH fragment]",agonist activity,[3],inactive
PTH(1-34),agonist activity,[3],full agonist
"PTH(25-34) (RKKLQDVHNF; Parathyroid hormone; UniProt P01270 56-65, looked up, fragment)",receptor binding / affinity,renal PTH receptors,weak receptor binding activity
[Tyr^34]bPTH(7-34)NH2,agonist activity,[3],does not have any agonist activity
same,receptor binding / affinity,renal PTH receptors,moderate affinity
B1,HSC pool in the bone marrow following chemotherapy,[4],significant depletion of the HSC pool
same,mobilization of HSCs into the peripheral circulation,[5],little to no mobilization
same,neutrophils count (NE) following chemotherapy,peripheral blood cells,significant increases
same,white blood count (WBC) following chemotherapy,peripheral blood cells,significant increases
